# Source: patent US9415108B2, “Compositions for transdermal delivery of active agents” (NeuroDerm, Ltd., priority 2010, dated 2016)
# Experiments:
# Assay type in all cases: in vitro ADME
# [1] = Transdermal delivery of carbidopa through full thickness pig skin ex vivo, Franz Cell delivery system; conditions: for Transdermal delivery of Carbidopa through full thickness pig skin, ex vivo: 24 h, 8.85% carbidopa-arginine salt
# Protocol: The effects of octanol, limonene and/or lauroglycol on the transdermal delivery of carbidopa through full thickness pig skin are evaluated using the Franz Cell delivery system. Formulations containing carbidopa, octanol, limonene, and/or lauroglycol are prepared (formulations 1-8). Samples are collected from the receive cell at 24 and 41 hours after application of the formulation to the skin. The amount of carbidopa compounds in the receiver cell fluid is determined using a spectrophotometer and/or UV-HPLC at 280 nm. […] In Table 1 and FIG. 1, the formulations each contain 14.5% (by weight) carbidopa-arginine salt. In Table 2 the formulations each contain 8.85% (by weight) carbidopa-arginine salt.
# [2] = Transdermal delivery of opipramol through full thickness pig skin ex vivo
# Protocol: FIG. 7 depicts the effect of organic acids on the transdermal delivery of opipramol through full thickness pig skin. Formulations containing opipramol, various organic acids (succinic acid, citric acid, lactic acid, ascorbic acid, malic acid, or tartaric acid), octanol, lauroglycol, and/or Klucel® are prepared. Samples are collected from the receive cell at 22 and 46 hours after application of the formulations to the skin. The amount of opipramol compounds in the receiver cell fluid is determined using a spectrophotometer and/or UV-HPLC at 280 nm. FIG. 8 depicts the effects of octanol, limonene and/or lauroglycol on the transdermal delivery of opipramol (5% by weight) through full thickness pig skin.
# [3] = as above; remark: listed apart in the source
# [4] = inclusion of Klucel hydroxypropyl cellulose in formulation containing octanol and limonene (FIG. 4)
compound,measurement,setting,value
"C[C@@](Cc1ccc(O)c(O)c1)(NN)C(=O)O [Carbidopa, carbidopa]","Transdermal delivery of Carbidopa through full thickness pig skin, ex vivo","[1]; Octanol 0, Limonene 1.5, Oleic Acid 0",1.0 mg/cm^2
same,"Transdermal delivery of Carbidopa through full thickness pig skin, ex vivo","[1]; Octanol 0, Limonene 1.5, Oleic Acid 2",1.0 mg/cm^2
same,"Transdermal delivery of Carbidopa through full thickness pig skin, ex vivo","[1]; Octanol 4, Limonene 1.5, Oleic Acid 0",6.4 mg/cm^2
same,Effect of the combination of octanol and lauroglycol on delivery of carbidopa through pig skin,"[1]; FIG. 1, depends on the octanol:lauroglycol ratio",enhances
same,Effect of the combination of octanol and limonene on delivery of carbidopa through pig skin,"[1]; FIGS. 1 and 2, Tables 1 and 2",additive and/or synergistic effect
same,Effect on lag time of carbidopa penetration through the skin,[1]; addition of lactic acid to formulation containing octanol and limonene (FIG. 3),reduces
same,Effect on lag time of carbidopa penetration,[1]; [4],increases
same,Effect on rate of carbidopa penetration through the skin,[1]; [4],reduces
same,Enhancement of penetration of the drug through the skin,[1]; on increasing the amount of carbidopa in the formulation by 50% (FIG. 5),25%
OCCN1CCN(CCCN2c3ccccc3C=Cc3ccccc32)CC1 [opipramol],Effect of addition of organic acids on transdermal delivery of opipramol,[2]; FIG. 7,significantly increases
same,Effect of lactic acid and citric acid on opipramol penetration through the skin,[2]; FIG. 7,minimal effect
same,Effect of tartaric acid on opipramol delivery relative to other organic acids,"[2]; FIG. 7, followed by ascorbic, succinic and malic acid",highest enhancing effect
same,Effect of lauroglycol in the formulation on opipramol delivery,"[2]; FIG. 8, Table 3",reduces the additive and/or synergistic effect
same,Effect of the combination of octanol and limonene on delivery of opipramol through pig skin,"[2]; FIG. 8, opipramol 5% by weight",additive and/or synergistic effect
same,Effect of glutamic acid on opipramol penetration through the skin,[3]; FIG. 9,significantly increases
same,Effect of increasing concentration of Klucel on penetration of opipramol through the skin,[3]; FIG. 10,reduces
same,Effect of tartaric acid on opipramol penetration through the skin as compared to opipramol base,[3]; FIG. 11,significantly increases
same,"Tartaric acid compared with hydrochloric acid, opipramol penetration",[3]; FIG. 11,significantly superior
same,Opipramol delivery of formulation containing 2.5% (wt) opipramol,"[3]; FIG. 12, compared with 1% formulation",delivers more opipramol than the 1% formulation
same,Transdermal delivery of opipramol at 5% opipramol in the formulation,"[3]; FIG. 12, higher concentration",may be inhibited
same,Rate of opipramol penetration,"[3]; glutamic acid formulation, in the presence of 1% limonene (FIG. 9)",reduced
same,Lag time of opipramol penetration through the skin,"[3]; glutamic acid formulation, in the presence of 5% water (FIG. 9)",shortened
